Assay results as given in patent US10000452B1, “Quinolone-based compounds, formulations, and uses thereof” (University of South Florida, priority 2016, dated 2018).
pEC50: −log10 of the molar value. Values after ≈ are worked out from the molar mass of the structure shown. Values joined by “and” are separate entries in the source; they are usually repeats but may differ in a detail not shown here. Equal entries are not always repeated. Where two headings read alike, the source gives them in different places.

Experiments:
[1] = system: malarial strain TM90-C2B (mefloquine, chloroquine, atovaquone, and pyrimethamine-resistant); test: microbe, parasite or virus in culture; assay type: cell-based, P. falciparum; settings: for EC50: TM90, read-out: EC50 TM90-C2B (nM)
Description: Ideally, the RI of a compound should lie between 0.3 and 3.0 in order to avoid rapidly inducing resistance in the parasite. […]

[2] = system: J774 mammalian cells; test: cytotoxicity to J774 cells; assay type: cell-based; settings: Mus musculus; for EC50: J774, read-out: EC50 J774 (μM)
Protocol: This allowed a simplified method for comparing the different assays being simultaneously run. Additionally, each compound was also tested for cytotoxicity using mammalian J774 cell lines in a 96-well plate format.^12-14, 16

[3] = system: P. berghei-GFP parasites; test: modified Thompson test; assay type: in vivo, P. berghei; mice; settings: for No. of Cures / % Inhibition Day 6 PI: 10 mg/kg oral on days 3, 4 and 5 PI; for No. of Cures: survival to day 30 PI with parasitemia <1%; for % Inhibition Day 6 PI: vs untreated control animals
Protocol: Mice were infected with 1×10^6 P. berghei-GFP parasites and compounds were dosed orally on days 3, 4 and 5 PI with a dose of 10 mg/kg of compound suspended or dissolved in HEC/Tween or PEG 400. Parasitemia was observed by flow cytometry on days 3, 6, 9, 13, 21, and 30 PI. Compounds with animal survival up to day 30 PI and parasitemia levels of less than 1% on day 30 PI were considered to be cures. Lastly, animals with more than 40% parasitemia levels were euthanized.
On days 3, 6, 9, 13, 21, and 30 PE, parasitemia was monitored by Giemsa-stained blood smears. Both compounds were evaluated by the reduction of parasitemia on day 6 PE and the survival up to day 30 PE.

[4] = system: malarial strain W2 (pyrimethamine and chloroquine-resistant); test: in vitro antimalarial activity against multidrug resistant strain W2; assay type: cell-based, P. falciparum; settings: Plasmodium falciparum; for pEC50: read-out: EC50 W2; for EC50: read-out: EC50 W2 (nM)
[5] = system: P. berghei sporozoites expressing luciferase; test: in vitro liver stage activity, luciferase sporozoites infecting HEPG2 hepatoma cells; assay type: cell-based; settings: Plasmodium berghei; for pEC50: HEPG2 cells
[6] = system: Pb-infected mice; test: in vivo efficacy scouting assay against blood stages; design: species or system P. berghei; mice; settings: for inhibition in vivo at 50 mg/kg: Plasmodium berghei, 144 h, read-out: % Inhibition Day 6 PI; for activities in these scout assays: result in words
Protocol: The screening involved a single oral 50 mg/kg dose 1 day post infection (PI) and an assessment of parasitemia on days 3 PI and 6 PI (Table 6).
The screening was performed by treating two infected mice with a single 50 mg/kg oral dose of test compound suspended in PEG400 on day 1 postexposure (PE) followed by assessing parasitemia on days 3 and 6 PE.

[7] = aqueous solubility (LC/MS- or HPLC-based assay); assay type: physicochemical
Outline: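 Aqueous solubility and log D (pH 7.4) determined by LC/MS-based assays; solubility examined at more than one pH.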

[8] = lipophilicity log D at pH 7.4; assay type: physicochemical; settings: octanol/water
Description: Furthermore, to profile the properties of the piperazinyl-4(1H)-quinolones, and to identify potential limitations, aqueous solubility and lipophilicity log D were experimentally determined via LC/MS-based assays as described by the Manetsch laboratory previously^8,10,31,32 (Tables 9-12). Encouragingly, the piperazinyl-4(1H)-quinolones were much more soluble than the previously described phenoxyethoxy-4(1H)-quinolone analogues.^19 As expected, the solubility of all compounds was affected by pH, with better solubility under more acidic conditions.
In parallel to testing the compounds for in vitro antimalarial activity, a limited structure-property relationship (SPR) study focusing on log D and aqueous solubility was conducted to assess potential physiochemical liabilities (FIG. 22). […] For these reasons, physicochemical properties were not strongly considered as selection criteria for in vivo efficacy studies.

[9] = system: P. berghei sporozoite infected mice; test: in vivo efficacy against liver stages, bioluminescence imaging; settings: for % Inhibition Day 9 PI: single dose 1 hour after infection; for protection by bioluminescence imaging: 44 h, day 6, 9 and 13 PI, 25, 50, 100 mg/kg oral or subcutaneous, result in words
Protocol: Animals (n=5 per group) received a single dose by gavage 1 hour after inoculation with sporozoites. Representative images taken at 44 h, day 6, day 9, and day 13 after infection are shown. At 44 h, bioluminescent signal was detected in control untreated animals, with the highest intensity noted in the area overlaying the liver, consistent with the presence of liver-stage parasites.
At 44 h PI, day 6 PI, day 9 PI, and day 13 PI, compound efficacy was determined by bioluminescence imaging via injection of D-luciferin. Both compounds were administered orally or subcutaneously at increasing doses of 25 mg/kg, 50 mg/kg, and 100 mg/kg in PEG 400. […] Progression of parasitemia was monitored up to 30 days after infection (Table 8).

[10] = Example 2: two mice, single 50 mg/kg oral dose in PEG400 on day 1 PE
[11] = aqueous solution, pH 2, simulated gastric fluid, pH 2.0, read-out: Solubility pH 2.0
[12] = aqueous solution, pH 6.5, aqueous buffer, pH 6.5, read-out: Solubility pH 6.5
[13] = single oral 50 mg/kg dose 1 day PI
[14] = single oral 50 mg/kg dose 1 day PI, vs untreated animals
[15] = aqueous solution (buffer not named), pH 2, simulated gastric fluid, pH 2.0, read-out: Solubility pH 2.0
[16] = aqueous solution (buffer not named), pH 6.5, aqueous buffer, pH 6.5, read-out: Solubility pH 6.5
[17] = aqueous medium, pH 2, simulated gastric fluid, pH 2.0, read-out: Solubility pH 2.0
[18] = aqueous medium, pH 6.5, aqueous buffer, pH 6.5, read-out: Solubility pH 6.5

Compound: O=C1C(O)=C([C@H]2CC[C@H](c3ccc(Cl)cc3)CC2)C(=O)c2ccccc21 [Atovaquone, atovaquone, reference compound]
- pEC50 ([1]; Plasmodium falciparum, TM90, read-out: EC50 TM90-C2B): 4.74
- pEC50 ([2]; J774, cytotoxicity, 96 well plate format, read-out: EC50 J774): 4.55
- No. of Cures [3]: 5/5

Compound: CCCCc1cc2c(=O)c(C(=O)OC)c[nH]c2cc1OCCOc1ccccc1 [Compound 6b, Methyl 6-Butyl-4-oxo-7-(2-phenoxyethoxy)-1,4-dihydroquinoline-3-carboxylate, reference compound]
- pEC50 [4]: 10.41
- EC50 ([1]; Plasmodium falciparum): 7.89 nM
- EC50 ([5]; HepG2, text values printed in pM): 52 pM
- % inhibition on day 3 PE [6, 10]: 76.9%
- % inhibition on day 6 PE [6, 10]: 49%
- day mice were sacrificed ([3]; Example 2: 10 mg/kg oral days 3, 4, 5, controls sacrificed day 13): 13
- % inhibition on day 6 PE ([3]; Example 2: 10 mg/kg oral days 3, 4, 5 in HEC/Tween, Giemsa-stained smears): no inhibition

Compound: COC(=O)c1c[nH]c2cc(CN3CCN(c4ccc(C(F)(F)F)cc4)CC3)c(OC)cc2c1=O [Compound 8ab, Methyl 6-methoxy-4-oxo-7-((4-(4-(trifluoromethyl)phenyl)piperazin-1-yl)methyl)-1,4-dihydroquinoline-3-carboxylate]
- EC50 [4]: 6.42 nM
- pEC50 [5]: 8.02
- EC50 [2]: > 20 µM
- solubility [7, 11]: 1 to 19.9 µM (≈ 0.475 to 9.46 µg/mL)
- solubility [7, 12]: 1 to 19.9 µM (≈ 0.475 to 9.46 µg/mL)
- chromatographic logD [8]: 1.29
- inhibition in vivo at 50 mg/kg ([6]; po): > 85%
- activities in these scout assays [6, 13]: excellent activities
- % Inhibition Day 3 PI [6, 14]: full inhibition
- % Inhibition Day 6 PI [6, 14]: completely inhibited parasite growth
- No. of Cures [3]: 3 of the 5 and 3/5

Compound: O=c1c(Br)c[nH]c2cc(CN3CCN(c4ccc(F)cc4)CC3)ccc12 [Compound 8ak, 3-Bromo-7-((4-(4-fluorophenyl)piperazin-1-yl)methyl) quinolin-4(1H)-one]
- EC50 [4]: 812 nM
- EC50 ([1]; Plasmodium falciparum): 2430 nM
- pEC50 [5]: 9.07
- EC50 [2]: > 20 µM
- solubility [7, 15]: ≥ 80 µM
- solubility [7, 16]: 20 to 39.9 µM (≈ 8.33 to 16.6 µg/mL)
- chromatographic logD [8]: 2.91
- No. of Cures [3]: 0/5
- % Inhibition Day 6 PI [3]: low inhibition

Compound: Cc1[nH]c2cc(CN3CCN(c4ccc(F)cc4)CC3)ccc2c(=O)c1Cl [Compound 8ao, 3-Chloro-7-((4-(4-fluorophenyl)piperazin-1-yl)methyl)-2-methylquinolin-4(1H)-one]
- EC50 [4]: 38.5 nM
- EC50 ([1]; Plasmodium falciparum): 52.1 nM
- EC50 [2]: > 20 µM
- solubility [7, 15]: ≥ 80 µM
- solubility [7, 16]: 1 to 19.9 µM (≈ 0.386 to 7.68 µg/mL)
- chromatographic logD [8]: 2.73
- No. of Cures [3]: 0/5
- % Inhibition Day 6 PI [3]: low inhibition

Compound: COC(=O)c1c[nH]c2cc(CN3CCN(c4ccccc4)CC3)ccc2c1=O [Compound 8j, Methyl 4-oxo-7-((4-phenylpiperazin-1-yl)methyl)-1,4-dihydroquinoline-3-carboxylate]
- EC50 [4]: 1.25 nM
- EC50 ([1]; Plasmodium falciparum): 483 nM
- pEC50 [5]: 8.32
- solubility [7, 17]: ≥ 80 µM
- solubility [7, 18]: ≥ 80 µM
- chromatographic logD [8]: 0.86
- No. of Cures ([9]; 25 mg/kg oral): 2/5
- % Inhibition Day 9 PI ([9]; 25 mg/kg oral): 65.3%
- No. of Cures ([9]; 50 mg/kg oral): 2/5
- % Inhibition Day 9 PI ([9]; 50 mg/kg oral): 85.1%
- No. of Cures ([9]; 50 mg/kg subcutaneous): 3/5
- % Inhibition Day 9 PI ([9]; 50 mg/kg subcutaneous): >99.0%
- No. of Cures ([9]; 100 mg/kg oral): 5/5
- % Inhibition Day 9 PI ([9]; 100 mg/kg oral): >99.0%
- protection by bioluminescence imaging [9]: no luminescence was observed
- animals cured (survival curves) ([9]; over all doses tested, 25-100 mg/kg): two or more out of five

Compound: COC(=O)c1c[nH]c2cc(CN3CCN(Cc4ccc(OC)cc4)CC3)ccc2c1=O [Compound 8l, Methyl 7-((4-(4-methoxybenzyl)piperazin-1-yl)methyl)-4-oxo-1,4-dihydroquinoline-3-carboxylate]
- EC50 [4]: 2.5 nM
- EC50 ([1]; Plasmodium falciparum): 799 nM
- pEC50 [5]: 7.08
- solubility [7, 17]: ≥ 80 µM
- solubility [7, 18]: ≥ 80 µM
- chromatographic logD [8]: 1.66
- inhibition in vivo at 50 mg/kg [6, 14]: ~40%
- No. of Cures ([9]; 25 mg/kg oral): 0/5
- % Inhibition Day 9 PI ([9]; 25 mg/kg oral): 49.1%
- No. of Cures ([9]; 50 mg/kg oral): 0/5
- No. of Cures ([9]; 50 mg/kg subcutaneous): 0/5
- % Inhibition Day 9 PI ([9]; 50 mg/kg subcutaneous): 20.1%
- No. of Cures ([9]; 100 mg/kg oral): one of five and 1/5
- protection by bioluminescence imaging [9]: full protection at all time points only at an oral dose of 100 mg/kg

Compound: COC(=O)c1c[nH]c2cc(CN3CCN(c4ccc(C(F)(F)F)cc4)CC3)c(C)cc2c1=O [Compound 8v, Methyl 6-methyl-4-oxo-7-((4-(4-(trifluoromethyl)phenyl)piperazin-1-yl)methyl)-1,4-dihydroquinoline-3-carboxylate]
- pEC50 [4]: 10.18
- EC50 [4]: 0.066 nM
- EC50 ([1]; Plasmodium falciparum): 101 nM
- RI ([1]; RI = EC50 TM90-C2B/EC50 W2): 1530
- EC50 [2]: > 20 µM
- solubility [7, 11]: ≥ 80 µM
- solubility [7, 12]: 1 to 19.9 µM (≈ 0.459 to 9.14 µg/mL)
- chromatographic logD [8]: 3.73
- inhibition in vivo at 50 mg/kg ([6]; po): > 85%
- activities in these scout assays [6, 13]: excellent activities
- % Inhibition Day 3 PI [6, 14]: full inhibition
- % Inhibition Day 6 PI [6, 14]: completely inhibited parasite growth
- No. of Cures [3]: 3 of the 5 and 3/5

Compound: COC(=O)c1c[nH]c2cc(CN3CCN(Cc4ccccc4)CC3)c(OC)cc2c1=O [Compound 8x, Methyl 7-((4-benzylpiperazin-1-yl)methyl)-6-methoxy-4-oxo-1,4-dihydroquinoline-3-carboxylate]
- EC50 [4]: 5.45 nM
- EC50 ([1]; Plasmodium falciparum): 2830 nM
- pEC50 [5]: 8.03
- EC50 [2]: > 20 µM
- solubility [7, 17]: ≥ 80 µM
- solubility [7, 18]: 60 to 79.9 µM (≈ 25.3 to 33.7 µg/mL)
- chromatographic logD [8]: 1.28
- % Inhibition Day 6 PI [6, 14]: little to moderate protection

Compound: COC(=O)c1c[nH]c2cc(CN3CCN(c4ccc(OC)cc4)CC3)c(OC)cc2c1=O [Compound 8z, Methyl 6-methoxy-7-((4-(4-methoxyphenyl)piperazin-1-yl)methyl)-4-oxo-1,4-dihydroquinoline-3-carboxylate]
- EC50 [4]: 3.38 nM
- EC50 ([1]; Plasmodium falciparum): 861 nM
- pEC50 [5]: 7.98
- EC50 [2]: 15.7 µM
- solubility [7, 11]: ≥ 80 µM
- solubility [7, 12]: ≥ 80 µM
- chromatographic logD [8]: 2.19
- activities in these scout assays [6, 13]: excellent activities
- % Inhibition Day 6 PI [6, 14]: 70.6%

Compound: COc1cc(NC(C)CCCN)c2ncccc2c1 (stereo not shown) [Primaquine, reference compound]
- No. of Cures ([9]; 50 mg/kg oral): 2/5
- % Inhibition Day 9 PI ([9]; 50 mg/kg oral): >99.0%
